Measured values reported in patent publication US5349127A, “Expression of herbicide metabolizing cytochromes P450” (priority 1992, dated 1994).

Key:
[1] = test system: S. griseolus PH2003 pIJ425; assay: Percent conversion of herbicides by cultures (Example 16); format: in vitro ADME, Streptomyces griseolus; conditions: 3.0 mg herbicide in 25 ml broth; 24 hours
Description: (§1) Separate cultures (50 ml) inoculated with S. lividans C37, S. lividans transformed with pCAO200SU1-FeS-B#9, S. griseolus ATCC11796, S. griseolus PH2003 transformed with pIJ425, or S. ariseolus PH2003 transformed with pCS325 were cultured in sporulation broth for 18 hours at 30° C. with shaking. Each culture was then resuspended in 25 ml fresh sporulation broth and 3.0 mg herbicide added. In the case of cultures of S. griseolus ATCC11796, a second culture containing herbicide and 3.0 mg 10001 was also prepared. Each culture was reincubated for 24 hours, then an aliquot of the medium was withdrawn and analyzed by HPLC. The percent conversion of herbicide was determined.

[2] = test system: S. griseolus PH2003 pCS325; assay: as above; format: in vitro ADME, Streptomyces griseolus; conditions: for Percent Conversion: 3.0 mg herbicide in 25 ml broth, 24 hours; for metabolism by bacteria containing constitutively expressed P450SU2: summary of Table 13
Description: as §1

[3] = test system: S. lividans pCAO200SU1-FeS-B#9; assay: as above; format: in vitro ADME, Streptomyces lividans; conditions: for Percent Conversion: 3.0 mg herbicide in 25 ml broth, 24 hours
Description: as §1

[4] = test system: S. griseolus ATCC11796; assay: Metabolism of 10015 analogs to 10014 (Example 17); format: in vitro ADME, Streptomyces griseolus
Description: Cultures of S. griseolus ATCC11796 were cultivated in sporulation-broth (50ml) at 30° C. with shaking for 17 hours. Each culture was then resuspended in 25 ml fresh sporulation broth, 3.0 mg sulfonylurea was added, and the culture reincubated for 4 days. Aliquots of the medium were then analyzed by HPLC. Formation of 10014 was measured based on similarity of retention time and UV spectrum of the test metabolite to that formed by metabolism of 10015.

[5] = test system: S. lividans pCAO200; assay: Sulfonylurea metabolism by washed cell suspension (Examples 6-9); format: in vitro ADME, Streptomyces lividans; conditions: substrate 10010
[6] = test system: S. lividans pCAO200SU1#12; assay: as above; format: in vitro ADME, Streptomyces lividans
Description: (§2) Herbicides and their metabolites are measured by HPLC as described by Romesser et al., BBRC 140: 650-659 (1986), herein incorporated by reference, except that 0.1% H3 PO4 is used in both solvents. Chromatographic identity and quantitation of the herbicides and their resulting metabolites is determined by comparing them chromatographically with authentic standard compounds. Identity of the resulting metabolites is also confirmed by UV spectroscopy. […]
(§3) S. lividans transformed respectively with pCAO200SU1-FeS-B#9, pCAO200SU#112and pCAO200 were cultured for 36 hours in 400 ml of YEME broth at 30° C. S. griseolus ATCC 11796 was similarly cultured in 400 ml of sporulation broth. Six hours before harvesting the cells, 150 ml of fresh YEME broth was added to the S. lividans cells, and the S. griseolus cells were split into two 200 ml cultures with 100 ml of fresh sporulation broth added to each. 10001 (36 mg) was added to one of the two S. griseolus cultures to induce cytochrome P450SU1. The cells were prepared as described above in Example 5 and the concentrations of the sulfonylurea compound 10006 and its metabolites 10007, 10008 or 10009 were determined.

[7] = test system: S. lividans pCAO200SU2-FeS-A#11; assay: Sulfonylurea metabolism by washed cell suspension (Examples 11-12); format: in vitro ADME, Streptomyces lividans; conditions: substrate 10010
[8] = test system: S. lividans pCAO200SU1-FeS-B#9; assay: Sulfonylurea metabolism by washed cell suspension (Examples 6-9); format: in vitro ADME, Streptomyces lividans
Description: Herbicides and their metabolites are measured by HPLC as described by Romesser et al., BBRC 140: 650-659 (1986), herein incorporated by reference, except that 0.1% H3 PO4 is used in both solvents. Chromatographic identity and quantitation of the herbicides and their resulting metabolites is determined by comparing them chromatographically with authentic standard compounds. Identity of the resulting metabolites is also confirmed by UV spectroscopy.
A 100 ml culture of S. griseolus ATCC 11796 in sporulation broth and a 50 ml culture of S. lividans transformed with pCAO400 in YEME broth were prepared and incubated for 24 hours as described. At that time, the S. griseolus culture was split into two 50 ml aliquots into two separate flasks and 25 ml of fresh sporulation broth was added to each and 9 mg of […] was added to one of these cultures to induce cytochrome P450SU1 expression. Fresh YEME broth (25 ml) was added to the S. lividans culture. After an additional 6 hours growth at 30° C., the cells in each culture were harvested as described above, washed twice with MOPS (50 mM, pH 7.2) and recentrifuged. The cell pellets were resuspended in four cell volumes of MOPS (50 mM, pH 7.2) containing 0.2% glucose and about 100 μg/ml of 10004. These cell suspensions were incubated at 30° C. with shaking and aliqouts were taken at 2 and 5.5 hours. The supernatant of each aliquot was analyzed by HPLC and the concentrations of the sulfonylurea compound 10004 and its metabolite 10005 were determined.
as §3, with “The cells were prepared as described above in Example 5 and the concentrations of the sulfonylurea compound 10006 and its metabolites 10007, 10008 or 10009 were determined.” left out

[9] = test system: S. lividans C37; assay: Percent conversion of herbicides by cultures (Example 16); format: in vitro ADME, Streptomyces lividans; conditions: 3.0 mg herbicide in 25 ml broth; 24 hours
Description: as §1

[10] = test system: S. lividans pCAO200SU1-FeS-B#9; assay: Percent conversion of non-sulfonylurea herbicides (Example 29); format: in vitro ADME, Streptomyces lividans; conditions: for Percent Conversion: 3.0 mg herbicide in 25 ml broth, 18 hours; for metabolism by bacteria containing constitutively expressed P450SU1: summary of Table 29
Description: This experiment was performed as in Example 17 with the following changes. Separate cultures (50 ml) inoculated with S. lividans C37, S. lividans transformed with pCAO200SU1-FeS-B#9, or S. griseolus ATCC11796 were cultured in sporulation broth for 18 hours at 30° C. with shaking. Each culture was then resuspended in 25 ml fresh sporulation broth and 3.0 mg herbicide added. Each culture was reincubated for 18 hours, then an aliquot of the medium was withdrawn and analyzed by HPLC. The percent conversion of herbicide was determined.

[11] = test system: S. lividans pCAO200; assay: Sulfonylurea metabolism by washed cell suspension (Examples 6-9); format: in vitro ADME, Streptomyces lividans; conditions: substrate 10006
Description: as §2, §3

C[n+]1cccnc1[O-] [compound 10022, 1-methyl-2(1H)-pyrimidinone]
Percent Conversion [1]: 0% | Percent Conversion [2]: 96% | metabolism by bacteria containing constitutively expressed P450SU2 [2]: metabolized | Percent Conversion [3]: 42%

CCN1Cc2cccc(S(=O)(=O)NC(=O)Nc3nc(OC)cc(OC)n3)c2S1(=O)=O [compound 10024, N-[(4,6-dimethoxypyrimidin-2-yl)aminocarbonyl]-2-ethyl-2,3-dihydro-1,2-benzisothiazole-7-sulfonamide-1,1-dioxide]
metabolism by P450SU1 to phytotoxic 10014 [4]: metabolized

COC(=O)c1ccccc1S(=O)(=O)NC(=O)Nc1nc(C)cc(CO)n1 [compound 10011, N-[(4-hydroxymethyl-6-methyl-pyrimidin-2-yl)aminocarbonyl]-2-methoxycarbonylbenzenesulfonamide]
concentration in supernatant ([5]; 2 h): 1 µM | concentration in supernatant ([5]; 4 h): 2 µM | concentration in supernatant ([5]; 6 h): 3 µM | concentration in supernatant ([6]; substrate 10010, 2 h): 4 µM | concentration in supernatant ([6]; substrate 10010, 4 h): 7 µM | concentration in supernatant ([6]; substrate 10010, 6 h): 11 µM | concentration in supernatant ([7]; 2 h): 1 µM | concentration in supernatant ([7]; 4 h): 5 µM | concentration in supernatant ([7]; 6 h): 14 µM | concentration in supernatant ([8]; substrate 10010, 2 h): 34 µM | concentration in supernatant ([8]; substrate 10010, 4 h): 37 µM | concentration in supernatant ([8]; substrate 10010, 6 h): 27 µM

CSc1nnc(C(C)(C)C)c(=O)n1N [compound 10018, 4-amino-6-tert-butyl-3-(methylthio)-AS-triazin-5(4H)-one]
Percent Conversion [1]: 10% | Percent Conversion [2]: 72% | metabolism by bacteria containing constitutively expressed P450SU2 [2]: metabolized | Percent Conversion [3]: 56% | metabolism by bacteria containing constitutively expressed P450SU1 ([3]; summary of Table 13): metabolized | Percent Conversion [9]: 0%

C=CCN1Cc2cccc(S(=O)(=O)NC(=O)Nc3nc(OC)cc(OC)n3)c2S1(=O)=O [compound 10028, N-[(4,6-dimethoxypyrimidin-2-yl)aminocarbonyl]-2,3-dihydro-2-(2-propenyl)-1,2-benzisothiazole-7-sulfonamide-1,1-dioxide]
metabolism by P450SU1 to phytotoxic 10014 [4]: metabolized

CCCN1Cc2cccc(S(=O)(=O)NC(=O)Nc3nc(OC)cc(OC)n3)c2S1(=O)=O [compound 10027, N-[(4,6-dimethoxypyrimidin-2-yl)aminocarbonyl]-2,3-dihydro-2-propyl-1,2-benzisothiazole-7-sulfonamide-1,1-dioxide]
metabolism by P450SU1 to phytotoxic 10014 [4]: metabolized

COC(=O)C1Cc2c(c(Cl)cc(F)c2N2C(=O)C3=C(CCCC3)C2=O)O1 (centres unmarked) [compound 10020, 7-chloro-5-fluoro-4-(2,3,4,5,6,7-hexahydro-1,3-dioxo-1H-isoindol-2-yl)-2,3-dihydro-2-benzofurancarboxylic acid, methyl ester]
Percent Conversion [1]: 7% | Percent Conversion [2]: 89% | metabolism by bacteria containing constitutively expressed P450SU2 [2]: metabolized | Percent Conversion [3]: 19%

Cc1cc(C)nc(S(=O)(=O)Nc2c(Cl)cccc2Cl)n1 [compound 10036, N-(2,6-dichlorophenyl)-4,6-dimethyl-2-pyrimidinesulfonamide]
Percent Conversion [10]: 100% | metabolism by bacteria containing constitutively expressed P450SU1 [10]: metabolized

COc1cc(OC)nc(NC(=O)NS(=O)(=O)c2cccc3c2S(=O)(=O)N(Cc2ccccc2)C3)n1 [compound 10025, N-[(4,6-dimethoxypyrimidin-2-yl)aminocarbonyl]2,3-dihydro-2-(phenylmethyl)-1,2-benzisothiazole-7-sulfonamide-1,1-dioxide]
metabolism by P450SU1 to phytotoxic 10014 [4]: metabolized

CCNc1nc(Cl)nc(NC(C)(C)C#N)n1 [compound 10021, 2-[4-chloro-6-(ethylamino-1,3,5-triazin-2-yl)amino]-2-methylpropanenitrile]
Percent Conversion [1]: 7% | Percent Conversion [2]: 93% | metabolism by bacteria containing constitutively expressed P450SU2 [2]: metabolized | Percent Conversion [3]: 23% | Percent Conversion [9]: 0%

COc1cc(OC)nc(NC(=O)NS(=O)(=O)c2cccc3c2S(=O)(=O)N(CCF)C3)n1 [compound 10026, N-[(4,6-dimethoxypyrimidin-2-yl)aminocarbonyl]-2-(2-fluoroethy1)-2,3-dihydro-1,2-benzisothiazole-7-sul fonamide-1,1-dioxide]
metabolism by P450SU1 to phytotoxic 10014 [4]: metabolized

Cc1cc(C)n2nc(S(=O)(=O)Nc3c(C)cccc3Cl)nc2n1 [compound 10033, N-(2-chloro-6-methylphenyl)-5,7-dimethyl-1,2,4-triazolo-1,5A-pyrimidine-2-sulfonamide]
Percent Conversion [10]: 88% | metabolism by bacteria containing constitutively expressed P450SU1 [10]: metabolized

COC(=O)c1ccccc1S(=O)(=O)NC(=O)Nc1nc(CO)nc(OC)n1 [compound 10009, N-[(4-methoxy-6-hydroxymethyl-1,3,5-triazin-yl)aminocarbony1]-2-methoxycarbonylbenzenesulfonamide]
concentration in supernatant ([6]; substrate 10006, 2 h): 0 µM | concentration in supernatant ([6]; substrate 10006, 4 h): 1 µM | concentration in supernatant ([6]; substrate 10006, 6 h): 1 µM | concentration in supernatant ([11]; 2 h): 0 nM | concentration in supernatant ([11]; 4 h): 0 nM | concentration in supernatant ([11]; 6 h): 0 nM | concentration in supernatant ([8]; substrate 10006, 2 h): 15 µM | concentration in supernatant ([8]; substrate 10006, 4 h): 33 µM | concentration in supernatant ([8]; substrate 10006, 6 h): 49 µM

COc1cc(OC)nc(NC(=O)NS(=O)(=O)c2cccc3c2S(=O)(=O)N(C[Si](C)(C)C)C3)n1 [compound 10032, N-[(4,6-dimethoxypyrimidin-2-yl)aminocarbonyl]-2,3-dihydro-2-(trimethylsilylmethyl)-1,2-benzisothiazole-7-sulfonamide-1,1-dioxide]
% Conversion to 10014 ([4]; 3.0 mg sulfonylurea in 25 ml broth, 4 days): 0%
